# Test results from patent US10906863B1, “Hydroxytyrosol 4-methoxycinnamic acid ester with antibacterial activity and a method of preparing the same” (SHAANXI UNIVERSITY OF SCIENCE AND TECHNOLOGY, priority 2020, dated 2021).
# Key:
# Assay type in all cases: cell-based
# [1] = tested on: carbapenem-resistant Acinetobacter baumannii CR-AB 18-183; experiment: MIC by microbroth dilution, CR-AB 18-183; details: strain CR-AB 18-183, 37° C., 20-22 hours
# Description: (§1) The minimal inhibitory concentration (MIC) of the compound as determined by a microbroth dilution method with gentamicin, cefazolin sodium and ceftriaxone sodium as positive control.
# (§2) The experimental strains included methicillin-resistant Gram-positive bacteria: methicillin-resistant Staphylococcus aureus MRSA 18-222, 18-575; multiple drug-resistant […] bacteria: vancomycin-resistant enterococci VRE 18-80,18-94, multidrug-resistant Pseudomonas aeruginosa MDR-PA 18-1774,18-202, carbapenem-resistant Acinetobacter baumannii CR-AB 18-183,18-560. All the experimental strains were donated by Huashan Hospital affiliated to Fudan University (Institute of antibiotics, Fudan University) and used after routine identification.
# (§3) Preparation of MHB medium: 20.0 g MHB medium was added to 1 L distilled water, boiled until completely dissolved, packed in conical bottles and sterilized at 121° C. for 15 min.
# (§4) The experimental strain was cultured to the logarithmic growth phase: under aseptic condition, the experimental strain was inoculated into 100 mL MHB medium and incubated in a constant temperature and humidity incubator at 37° C. for 20-22 hours.
# (§5) Preparation of storage solution: weigh the sample to be tested, dissolve it with 1% DMSO solution, prepare a storage solution with a concentration of 2560 μg/mL, weigh a positive reference substance, dissolve it with aseptic distilled water, and configure a storage solution with a concentration of 2560 μg/mL.
# (§6) Under aseptic condition, the experimental strains cultured to logarithmic growth phase were adjusted to 0.5 MCF turbidity standard with MHB medium and […], and the bacterial suspension with concentration of 10^6 CFU/mL was prepared for standby.
# (§7) Dilution of storage solution and inoculation of experimental strain: under aseptic condition, the storage solution was diluted to 256 μg/mL solution. Take a sterile 96-well plate, add 200 μL MHB medium to the 12th well, and add 100 μL MHB medium to each well. Add 100 μL of positive control solution to the first well, mix well, and suck 100 μL from it and discard. Add 100 μL of the compound sample solution to the second well, mix well, and then pipette 100 μL to the third well. After mixing, pipette 100 μL to the fourth well, and dilute to the 11th well in this way. Finally, 100 μL was pipetted from the 11th well and discarded. The 12th hole was the growth control without drugs. So far, the concentration of the positive reference substance is 128 μg/mL, the concentrations of the sample solution are 128, 64, 16, 8, 4, 2, 1, 0.5, 0.25 μg/mL respectively. Then, 10 μL of the prepared bacterial suspension is added to each well, so that the final concentration of the bacterial liquid in each well is 5×10^5 CFU/mL.
# (§8) Incubation: Cover the 96-well plate inoculated with the experimental strains, and incubate in a constant temperature and humidity box at 37° C. for 20-22 hours.
# [2] = tested on: multidrug-resistant Pseudomonas aeruginosa MDR-PA 18-202; experiment: MIC by microbroth dilution, MDR-PA 18-202; details: strain MDR-PA 18-202, 37° C., 20-22 hours
# Description: as §1, §2, §3, §4, §5, §6, §7, §8
# [3] = tested on: vancomycin-resistant enterococci VRE 18-80; experiment: MIC by microbroth dilution, VRE 18-80; details: strain VRE 18-80, 37° C., 20-22 hours
# Description: as §1, §2, §3, §4, §5, §6, §7, §8
# [4] = tested on: multidrug-resistant Pseudomonas aeruginosa MDR-PA 18-174; experiment: MIC by microbroth dilution, MDR-PA 18-174; details: for Minimum Bacteriostatic Concentration: strain MDR-PA 18-174, microbroth dilution, 37° C., 20-22 hours
# Description: as §1, §2, §3, §4, §5, §6, §7, §8
# (§9) In FIGS. 1-10, the twelve wells represent twelve groups, from left to right, positive, 128 μg/mL, 64 μg/mL, 32 μg/mL, 16 μg/mL, 8 μg/mL, 4 μg/mL, 2 μg/mL, 1 μg/mL, 0.25 μg/mL, 0.0625 μg/mL, Negative.
# [5] = tested on: vancomycin-resistant enterococci VRE 18-94; experiment: MIC by microbroth dilution, VRE 18-94; details: strain VRE 18-94, 37° C., 20-22 hours
# Description: as §1, §2, §3, §4, §5, §6, §7, §8
# [6] = tested on: drug-resistant bacteria; experiment: Antibacterial activity test, whole panel of drug-resistant strains; details: summary over the tested drug-resistant strains
# Description: as §1, §2, §3, §4, §5, §6
# Dilution of storage solution and inoculation of experimental strain: under aseptic condition, the storage solution was diluted to 256 μg/mL solution. Take a sterile 96-well plate, add 200 μL MHB medium to the 12th well, and add 100 μL MHB medium to each well. Add 100 μL of positive control solution to the first well, mix well, and suck 100 μL from it and discard. […]
# [7] = tested on: carbapenem-resistant Acinetobacter baumannii CR-AB 18-560; experiment: MIC by microbroth dilution, CR-AB 18-560; details: strain CR-AB 18-560, 37° C., 20-22 hours
# Description: as §1, §2, §3, §4, §5, §6, §7, §8
# [8] = tested on: methicillin-resistant Staphylococcus aureus MRSA 18-222; experiment: MIC by microbroth dilution, MRSA 18-222; details: for Minimum Bacteriostatic Concentration: strain MRSA 18-222, microbroth dilution, 37° C., 20-22 hours
# Description: as §1, §2, §3, §4, §5, §6, §7, §8, §9
# [9] = tested on: methicillin-resistant Staphylococcus aureus MRSA 18-575; experiment: MIC by microbroth dilution, MRSA 18-575; details: strain MRSA 18-575, 37° C., 20-22 hours
# Description: as §1, §2, §3, §4, §5, §6, §7, §8, §9
Compound,Minimum Bacteriostatic Concentration [1] [µg/mL],Minimum Bacteriostatic Concentration [2] [µg/mL],Minimum Bacteriostatic Concentration [3] [µg/mL],Minimum Bacteriostatic Concentration [4] [µg/mL],Minimum Bacteriostatic Concentration [5] [µg/mL],inhibitory effect on drug-resistant bacteria (result in words) [6],Minimum Bacteriostatic Concentration [7] [µg/mL],Minimum Bacteriostatic Concentration [8] [µg/mL],Minimum Bacteriostatic Concentration [9] [µg/mL],"MIC ([4]; Pseudomonas aeruginosa, MDR-PA, strain not named in the text (value matches 18-174)) [µg/mL]","MIC ([8]; Staphylococcus aureus, drug-resistant MRSA, strain not named in the text (value matches 18-222)) [µg/mL]"
OCCc1ccc(O)c(O)c1 [Hydroxytyrosol],>128,>128,>128,>128,>128,no inhibitory effect,>128,>128,>128,–,–
"CO/N=C(\C(=O)N[C@@H]1C(=O)N2C(C(=O)O)=C(CSc3nc(=O)c(=O)[nH]n3C)CS[C@H]12)c1csc(N)n1 [Ceftriaxone sodium, ceftriaxone sodium]",>128,16,8,128,>128,–,>128,>128,>128,–,–
"COc1ccc(/C=C/C(=O)OCCc2ccc(O)c(O)c2)cc1 [(E)-3,4-dihydroxyphenethyl 3-(4-methoxyphenyl)acrylate]",>128,>128,>128,8,>128,excellent antibacterial activity,>128,4,32,8,4
"Cc1nnc(SCC2=C(C(=O)O)N3C(=O)[C@@H](NC(=O)Cn4cnnn4)[C@H]3SC2)s1 [Cefazolin sodium, cefazolin sodium]",>128,128,32,8,>128,–,>128,>128,>128,–,–
COc1ccc(C=CC(=O)O)cc1 [4-methoxycinnamic acid],>128,>128,>128,>128,>128,no inhibitory effect,>128,>128,>128,–,–
gentamicin,>128,0.0625,0.0625,0.0625,>128,–,>128,128,2,–,–
